From patent publication US9216977B2 (The University of North Carolina at Chapel Hill, priority 2009, dated 2015)
Like-named read-outs stand apart in the source and are kept apart here.

Key:
A549 = assay: in vitro screen against human tumor cell line A549 (lung), GI50; type: cell-based
DU145 = assay: in vitro screen against human tumor cell line DU-145 (prostate), GI50; type: cell-based
KB = assay: in vitro screen against human tumor cell line KB (nasopharyngeal), GI50; type: cell-based; conditions: for GI50: read-out: GI50 KB
HCT-8 = assay: in vitro screen against human tumor cell line HCT-8 (colon), GI50; type: cell-based
[1] = system: panel of cancer cell lines including A549 (lung), DU-145 (prostate), KB (nasopharyngeal), and HCT-8 (colon); assay: cells; conditions: Homo sapiens
KBvin = assay: in vitro screen against KBvin cell line, GI50; type: cell-based; conditions: Homo sapiens, KBVIN; Example 3, Table 1
SKBR = assay: in vitro screen against cancer cell line SKBR (breast), GI50; type: cell-based; conditions: Example 3, Table 1
[2] = system: panel of cancer cell lines including A549 (lung), DU-145 (prostate), KB (nasopharyngeal), and HCT-8 (colon)
rats = conditions: rat, in vivo; cited from earlier work
[3] = Homo sapiens, A549, Example 3, Table 1, read-out: GI50 A549
[4] = Homo sapiens, DU-145, Example 3, Table 1, read-out: GI50 DU145
[5] = Homo sapiens, KB, Example 3, Table 1

## COc1ccc2c3c(c4cc(OC)c(OC)cc4c2c1)C[C@H]1CN(C)CN1C3 [Compound 3h, (S)-12-aza-12N-methyl-antofine]
A549; Example 2, Table 2, 12-aza-antofines, read-out: GI50 A549
  GI50: 660 nM
DU145; Example 2, Table 2, 12-aza-antofines, read-out: GI50 DU145
  GI50: 2030 nM
KB; Example 2, Table 2, 12-aza-antofines
  GI50: 1720 nM
HCT-8; Example 2, Table 2, 12-aza-antofines, read-out: GI50 HCT-8
  GI50: 1000 nM
other
  melting point: 182 to 184 °C
[1]; read-out: range of activities (GI50) over the cell line panel
  GI50: 660 to 2030 nM

## COc1ccc2c3c(c4cc(OC)c(OC)cc4c2c1)C[C@H]1CCOCN1C3 [Compound 13, (S)-12-oxa-cryptopleurine]
A549; Homo sapiens, A549, Example 2, Table 5, read-out: GI50 A549
  GI50: 1790 nM
DU145; Homo sapiens, DU-145, Example 2, Table 5, read-out: GI50 DU145
  GI50: 1820 nM
KB; Homo sapiens, KB, Example 2, Table 5
  GI50: 1660 nM
HCT-8; Homo sapiens, HCT-8, Example 2, Table 5, read-out: GI50 HCT-8
  GI50: 1450 nM
[1]; read-out: average GI50
  GI50: 1000 to 2000 nM

## COc1ccc2c3c(c4cc(OC)c(OC)cc4c2c1)C[C@H]1C[C@H](O)CCN1C3 [Compound 13b, (13R,14aS)-13-hydroxyl-cryptopleurine]
A549; [3]
  GI50: 22 nM
DU145; [4]
  GI50: 11 nM
KB; [5]
  GI50: 23 nM
KBvin
  GI50: 25 nM
SKBR
  GI50: 72 nM
[2]
  range of cytotoxicity / anticancer activity in words: low nM range

## COc1ccc2c3c(c4cc(OC)c(OC)cc4c2c1)C[C@H]1CC[C@@H](O)CN1C3 [Compound 19a, (12R,14aR)-12-hydroxyl-cryptopleurine]
A549; [3]
  GI50: 82 nM
DU145; [4]
  GI50: 66 nM
KB; [5]
  GI50: 33 nM
KBvin
  GI50: 45 nM
SKBR
  GI50: 348 nM
[2]
  range of cytotoxicity / anticancer activity in words: lower nM range

## COc1ccc2c3c(c4cc(OC)c(OC)cc4c2c1)C[C@H]1CC[C@H](O)CN1C3 [Compound 19b, (12S,14aR)-12-hydroxyl-cryptopleurine]
A549; [3]
  GI50: 2510 nM
DU145; [4]
  GI50: 2250 nM
KB; [5]
  GI50: 2250 nM
KBvin
  GI50: 3070 nM
SKBR
  GI50: 6440 nM
[2]
  range of cytotoxicity / anticancer activity in words: low μM range

## COc1ccc2c3c(c4cc(OC)c(OC)cc4c2c1)C[C@H]1CCCCN1C3 [R-cryptopleurine, reference compound]
A549; read-out: A549 GI50
  GI50: 1.38 nM
A549; read-out: GI50 A549
  GI50: 1.38 nM
DU145; read-out: DU145 GI50
  GI50: 1.59 nM
DU145; read-out: GI50 DU145
  GI50: 1.59 nM
KB
  KB GI50: 1.51 nM
  GI50: 1.51 nM
HCT-8; read-out: GI50 HCT-8
  GI50: 1.09 nM
HCT-8; read-out: HCT-8 GI50
  GI50: 1.09 nM
rats
  toxicity in animal tests: quite toxic

## COc1cc2c3c(c4cc(OC)c(OC)cc4c2cc1OC)CN1CCC[C@@H]1C3 [tylophorine]
rats
  generally non-toxic dose: up to 500 mg/kg
